# Target: T1, human PTH1 receptor (Homo sapiens, UniProt Q03431)
# T1 sequence (Q03431 27-593): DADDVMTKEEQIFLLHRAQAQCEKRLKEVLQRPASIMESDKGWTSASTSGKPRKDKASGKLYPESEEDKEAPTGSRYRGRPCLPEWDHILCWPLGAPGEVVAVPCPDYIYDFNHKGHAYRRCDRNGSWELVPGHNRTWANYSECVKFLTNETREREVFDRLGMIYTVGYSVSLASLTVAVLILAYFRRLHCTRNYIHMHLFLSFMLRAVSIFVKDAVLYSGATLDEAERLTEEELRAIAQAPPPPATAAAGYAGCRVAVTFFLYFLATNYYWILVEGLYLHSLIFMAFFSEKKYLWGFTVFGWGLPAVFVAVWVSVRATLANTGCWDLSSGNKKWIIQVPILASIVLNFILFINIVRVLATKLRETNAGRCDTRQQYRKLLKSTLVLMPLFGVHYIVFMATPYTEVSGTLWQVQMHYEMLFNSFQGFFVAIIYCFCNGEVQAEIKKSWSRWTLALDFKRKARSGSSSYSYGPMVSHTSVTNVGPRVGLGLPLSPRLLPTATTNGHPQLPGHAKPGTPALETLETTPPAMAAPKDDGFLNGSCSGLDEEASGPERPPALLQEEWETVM
# Test: In vitro cAMP signal activity in HKRK-B7 cells (LLC-PK1 cells overexpressing the human PTH1 receptor)
# Format: cell-based
# Settings: 0.1 µM
row,Compound,cAMP production activity (%)
1,Cc1cc2ccc1CCS(=O)(=O)N1CCC3(CC1)N=C(NC3=O)c1cc(cc(C(F)(F)F)c1)OCC(F)(F)C(F)(F)C(F)(F)COCCN(C)C2=O [Compound 1441],5.0

# Same assay, conditions: HKRK-B7 cells; compound at 1×10^−3 M; cAMP produced as percentage of that produced by hPTH(1-34) at 100 nM
row,Compound,cAMP production activity (%)
1,"Cc1cc(C(=O)N2CCN(C(=O)N(C)C)CC2)cc(C)c1/C=C/S(=O)(=O)N1CCC2(CC1)N=C(c1cccc(OC(F)(F)F)c1)NC2=O [Compound 395, 4-(3,5-dimethyl-4-{(E)-2-[4-oxo-2-(3-trifluoromethoxy-phenyl)-1,3,8-triaza-spiro[4.5]dec-1-ene-8-sulfonyl]-vinyl}-benzoyl)-piperazine-1-carboxylic acid dimethylamide]",88
2,"Cc1cc(C(=O)N2CCC(C)(O)CC2)cc(C)c1/C=C/S(=O)(=O)N1CCC2(CC1)N=C(c1ccc(S(F)(F)(F)(F)F)cc1)NC2=O [Compound 1189, 8-{(E)-2-[4-(4-hydroxy-4-methyl-piperidine-1-carbonyl)-2,6-dimethyl-phenyl]-ethenesulfonyl}-2-(4-pentafluorosulfanyl-phenyl)-1,3,8-triaza-spiro[4.5]dec-1-en-4-one]",104
3,"CC(=O)Nc1ccc(CCS(=O)(=O)N2CCC3(CC2)N=C(c2ccccc2C#N)NC3=O)c(C)c1 [Compound 908, N-(4-{2-[2-(2-cyano-phenyl)-4-oxo-1,3,8-triaza-spiro[4.5]dec-1-ene-8-sulfonyl]-ethyl}-3-methyl-phenyl)-acetamide]",74
4,"Cc1cc(C(=O)N2CCC(C)(O)CC2)cc(C)c1/C=C/S(=O)(=O)N1CCC2(CC1)N=C(c1ccc(OC(F)(F)F)cc1)NC2=O [Compound 1198, 8-{(E)-2-[4-(4-hydroxy-4-methyl-piperidine-1-carbonyl)-2,6-dimethyl-phenyl]-ethenesulfonyl}-2-(4-trifluoromethoxy-phenyl)-1,3,8-triaza-spiro[4.5]dec-1-en-4-one]",88
5,Cc1cc2ccc1CCS(=O)(=O)N1CCC3(CC1)N=C(NC3=O)c1cc(cc(C(F)(F)F)c1)OCC/C=C/COCCNC2=O [Compound 1426],5.4
6,"Cc1cc(C(=O)N2CCCN2)cc(C)c1CCS(=O)(=O)N1CCC2(CC1)N=C(C1CCC(CCC(F)(F)F)CC1)NC2=O (centres unmarked) [Compound 1386, 8-{2-[2,6-dimethyl-4-(pyrazolidine-1-carbonyl)-phenyl]-ethanesulfonyl}-2-[4-(3,3,3-trifluoro-propyl)-cyclohexyl]-1,3,8-triaza-spiro[4.5]dec-1-en-4-one]",92
7,"Cc1cc(C(=O)NN)cc(C)c1/C=C/S(=O)(=O)N1CCC2(CC1)N=C(C1CCC(CCC(F)(F)F)CC1)NC2=O (centres unmarked) [Compound 996, 3,5-Dimethyl-4-((E)-2-{4-oxo-2-[4-(3,3,3-trifluoro-propyl)-cyclohexyl]-1,3,8-triaza-spiro[4.5]dec-1-ene-8-sulfonyl}-vinyl)-benzoic acid hydrazide]",85
8,"CCOc1c(N(C)c2cc(C)c(CCS(=O)(=O)N3CCC4(CC3)N=C([C@H]3CC[C@H](C)CC3)NC4=O)c(C)c2)c(=O)c1=O [Compound 1367, 3-[(3,5-Dimethyl-4-{2-[2-(4-methyl-cyclohexyl)-4-oxo-1,3,8-triaza-spiro[4.5]dec-1-ene-8-sulfonyl]-ethyl}-phenyl)-methyl-amino]-4-ethoxy-cyclobut-3-ene-1,2-dione]",58
9,"Cc1cc(C(N)=O)cc(C)c1/C=C/S(=O)(=O)N1CCC2(CC1)N=C(c1cccc(OC(F)(F)F)c1)NC2=O [Compound 962, 3,5-dimethyl-4-{(E)-2-[4-oxo-2-(3-trifluoromethoxy-phenyl)-1,3,8-triaza-spiro[4.5]dec-1-ene-8-sulfonyl]-vinyl}-benzamide]",86
10,"Cc1cc(N2C[C@H](O)CC2=O)ccc1/C=C/S(=O)(=O)N1CCC2(CC1)N=C(c1cccc(C(F)(F)F)c1)NC2=O [Compound 220, 8-{(E)-2-[4-((R)-4-hydroxy-2-oxo-pyrrolidin-1-yl)-2-methyl-phenyl]-ethenesulfonyl}-2-(3-trifluoromethyl-phenyl)-1,3,8-triaza-spiro[4.5]dec-1-en-4-one]",80
11,"Cc1cc(N(C)C(N)=O)cc(C)c1CC[S@TB4](=O)(=O)N1CCC2(CC1)N=C(CCC(F)(F)CCCCCC(F)(F)F)NC2=O [Compound 1147, 1-(3,5-dimethyl-4-{2-[4-oxo-2-(3,3,9,9,9-pentafluoro-nonyl)-1,3,8-triaza-spiro[4.5]dec-1-ene-8-sulfonyl]-ethyl}-phenyl)-1-methyl-urea]",112
12,"O=C1NC(c2ccc(Cl)cc2Cl)=NC12CCN(S(=O)(=O)c1ccccc1C(F)(F)F)CC2 [Compound 45, 2-(2,4-dichloro-phenyl)-8-(2-trifluoromethyl-benzenesulfonyl)-1,3,8-triaza-spiro[4.5]dec-1-en-4-one]",22
13,"O=C1NC(C2CCCCC2)=NC12CCN(S(=O)(=O)CCc1cccc3cc[nH]c13)CC2 [Compound 835, 2-Cyclohexyl-8-[2-(1H-indol-7-yl)-ethanesulfonyl]-1,3,8-triaza-spiro[4.5]dec-1-en-4-one]",50
14,"Cc1cc(C(=O)N2CC[C@@H](O)C2)ccc1CCS(=O)(=O)N1CCC2(CC1)N=C(c1cccc(C(F)(F)F)c1)NC2=O [Compound 355, 8-{2-[4-((R)-3-hydroxy-pyrrolidine-1-carbonyl)-2-methyl-phenyl]-ethanesulfonyl}-2-(3-trifluoromethyl-phenyl)-1,3,8-triaza-spiro[4.5]dec-1-en-4-one]",84
15,"CN(CCO)c1ccc(/C=C/S(=O)(=O)N2CCC3(CC2)N=C(C2CCCCC2)NC3=O)c(C(F)(F)F)c1 [Compound 501, 2-cyclohexyl-8-((E)-2-{4-[(2-hydroxy-ethyl)-methyl-amino]-2-trifluoromethyl-phenyl}-ethenesulfonyl)-1,3,8-triaza-spiro[4.5]dec-1-en-4-one]",59
16,"CC(C)(C)COC(=O)N1CCCC(C2=NC3(CCN(S(=O)(=O)CCc4cccc5ccccc45)CC3)C(=O)N2)C1 (centres unmarked) [Compound 465, 3-[8-(2-naphthalen-1-yl-ethanesulfonyl)-4-oxo-1,3,8-triaza-spiro[4.5]dec-1-en-2-yl]-piperidine-1-carboxylic acid 2,2-dimethyl-propyl ester]",66
17,"O=C1NC(C2CCCCC2)=NC12CCN(S(=O)(=O)c1ccc(Cl)s1)CC2 [Compound 55, 8-(5-chloro-thiophene-2-sulfonyl)-2-cyclohexyl-1,3,8-triaza-spiro[4.5]dec-1-en-4-one]",55
18,"Cc1cc(N(C)C(=O)CN)cc(C)c1/C=C/S(=O)(=O)N1CCC2(CC1)N=C(c1cccc(OC(F)(F)F)c1)NC2=O [Compound 1011, 2-Amino-N-(3,5-dimethyl-4-{(E)-2-[4-oxo-2-(3-trifluoromethoxy-phenyl)-1,3,8-triaza-spiro[4.5]dec-1-ene-8-sulfonyl]-vinyl}-phenyl)-N-methyl-acetamide]",17
19,"CCCc1cccc(-c2cccc(C3=NC4(CCN(S(=O)(=O)CCc5c(C)cc(N(C)C(N)=O)cc5C)CC4)C(=O)N3)c2)c1 [Compound 1136, 1-(3,5-Dimethyl-4-{2-[4-oxo-2-(3′-propyl-biphenyl-3-yl)-1,3,8-triaza-spiro[4.5]dec-1-ene-8-sulfonyl]-ethyl}-phenyl)-1-methyl-urea]",112
20,"CC(=O)Nc1ccc(CCS(=O)(=O)N2CCC3(CC2)N=C(c2cccc(C#N)c2)NC3=O)c(C)c1 [Compound 907, N-(4-{2-[2-(3-cyano-phenyl)-4-oxo-1,3,8-triaza-spiro[4.5]dec-1-ene-8-sulfonyl]-ethyl}-3-methyl-phenyl)-acetamide]",85
21,"COCCCCCCCC1=NC2(CCN(S(=O)(=O)CCc3c(C)cc(N(C)C(N)=O)cc3C)CC2)C(=O)N1 [Compound 1351, 1-(4-{2-[2-(7-methoxy-heptyl)-4-oxo-1,3,8-triaza-spiro[4.5]dec-1-ene-8-sulfonyl]-ethyl}-3,5-dimethyl-phenyl)-1-methyl-urea]",100
22,"O=C1NC(c2ccc(Cl)cc2Cl)=NC12CCN(S(=O)(=O)c1cccc(Cl)c1)CC2 [Compound 50, 8-(3-chloro-benzenesulfonyl)-2-(2,4-dichloro-phenyl)-1,3,8-triaza-spiro[4.5]dec-1-en-4-one]",26
23,"Cc1cc(C(=O)N2CCN(c3ccc(F)cc3)CC2)ccc1CCS(=O)(=O)N1CCC2(CC1)N=C(c1cccc(C(F)(F)F)c1)NC2=O [Compound 375, 8-(2-{4-[4-(4-fluoro-phenyl)-piperazine-1-carbonyl]-2-methyl-phenyl}-ethanesulfonyl)-2-(3-trifluoromethyl-phenyl)-1,3,8-triaza-spiro[4.5]dec-1-en-4-one]",57
24,"Cc1cc(N(C)C(N)=O)cc(C)c1CCS(=O)(=O)N1CCC2(CC1)N=C(c1cccc(OC(F)(F)F)c1)NC2=O [Compound 935, 1-(3,5-dimethyl-4-{2-[4-oxo-2-(3-trifluoromethoxy-phenyl)-1,3,8-triaza-spiro[4.5]dec-1-ene-8-sulfonyl]-ethyl}-phenyl)-1-methyl-urea]",112
25,"O=C1NC(C2CCCCC2)=NC12CCN(S(=O)(=O)CCc1cccc3c1CCCN3)CC2 [Compound 645, 2-Cyclohexyl-8-[2-(1,2,3,4-tetrahydro-quinolin-5-yl)-ethanesulfonyl]-1,3,8-triaza-spiro[4.5]dec-1-en-4-one]",55

# Source: US9169254B2, “Spiroimidazolone derivative” (Chugai Seiyaku Kabushiki Kaisha, priority 2009, dated 2015)
